Measured values reported in patent US10214746B2, “Soybean transformation method” (Dow AgroSciences LLC, priority 2013, dated 2019).
Entries after “also recorded” stand apart in the source; their conditions may differ.

Tests used:
[1] = system: transgenic soybean shoots; experiment: Root development and yellow fluorescence protein expression of pDAB9381-transformed soybean shoots on rooting medium with glufosinate; format: in vivo, Glycine max
Method: The transformed soybean seeds were cultivated using the tissue culture protocol as described in U.S. Filing No. 61/739,349, herein incorporated by reference. Co-cultivation of the soybean plant seeds with an Agrobacterium strain containing the pDAB9381 plasmid was carried out for 5 days on co-cultivation medium covered with a filter paper. After 5 days of incubation on the co-cultivation medium, the explants were washed in liquid Shoot Induction (SI) medium for about 5 to 10 minutes. The explants were then cultured onto Shoot Induction-I (SI-I) medium. The soybean seeds were oriented so the flat side of the soybean seed faced up and the nodal end of the soybean cotyledon was imbedded into the SI-I medium. After 2 weeks of culture at 24° C. with an 18 hour photoperiod, the explants were transferred to the Shoot Induction-II (SI-II) medium supplemented with 6 mg/L glufosinate. After 2 weeks on SI-II medium, the cotyledons were removed from the explants, a flush shoot pad was excised by making a cut at the base of the cotyledon, and the isolated shoot was transferred to the Shoot Elongation (SE) medium. The cultures were transferred to fresh SE medium every two weeks. PETRI™ dishes were not wrapped with filter paper throughout the shoot induction and shoot elongation stages. Lighting sources were provided with an illumination of 80-90 μmoles s-1m-2 for the transformed tissues during shoot induction and shoot elongation.
The elongated shoots were dipped in 1 mg/L indole 3-butyric acid (IBA) for about 1 to 3 minutes to promote rooting prior to transferring of the isolated shoots to rooting medium (MS salts, B5 vitamins, 28 mg/L ferrous, 38 mg/L Na^2EDTA, 20 g/L sucrose and 0.59 g/L MES, 50 mg/L asparagine, 100 mg/L L-pyroglutamic acid, and 7 g/L NOBLE™ agar, pH 5.6) in phyta trays. A selection agent of glufosinate at a concentration of 1 mg/L was incorporated into the rooting medium for a subset of the transformation experiments.
Following culturing in the rooting medium at 24° C., with an 18 hour photoperiod, for 1-2 weeks, the soybean shoots that produced healthy, viable roots were transferred to soil. The soybean shoots comprising healthy, viable roots were placed in soil which was contained in an open plastic sundae cup. The plastic sundae cups containing the transferred soybean shoots comprising roots were placed in a CONVIRON™ for acclimatization of soybean plantlets. The rooted soybean plantlets were acclimated in the open sundae cups for several weeks before the plantlets were transferred to the greenhouse.
Incorporation of a section agent comprising glufosinate in soybean tissue culture rooting medium was tested to reduce the formation of non-germline, chimeric soybean transformation events and escapes. Following Agrobacterium-mediated transformation of soybean (cv. Maverick) with the binary vector, pDAB9381, soybean shoots were regenerated and cultured onto rooting medium that contained a selection agent comprising glufosinate. After root development was initiated on the rooting media comprising glufosinate, the roots were tested for transgene expression (yellow fluorescence protein).
A total of 531 transgenic soybean shoots were produced using the transformation method described above and transferred onto rooting medium containing the selection agent glufosinate. […] (see Table 2). A correlation was observed between yellow fluorescence protein transgene expression and viable, white root formation, wherein a significant majority of the viable, white roots expressed the yellow fluorescence protein transgene in root tissues. (see FIG. 2, FIG. 3, and FIG. 5). Microscopy results confirmed that about 92% of the soybean plants produced from rooting medium comprising a selection agent were transgenic as these soybean plants expressed the yellow fluorescence protein transgene. (see FIG. 2, FIG. 3, and FIG. 5).

[2] = system: non-transgenic soybean shoots; experiment: Growth response (rooting) of non-transgenic soybean shoots on rooting medium with glufosinate; format: in vivo
Method: Growth response studies to varying concentrations of selection agent were conducted using non-transgenic soybean shoots. In this example, glufosinate was used as the exemplary selection agent. Soybean shoots were regenerated from split-seed soybean tissues and cultivated on Shoot Induction medium until shoots had developed and were ready for transfer to rooting medium. Several different concentrations of glufosinate (0, 0.25 mg/L, 0.50 mg/L, 1 mg/L, 2 mg/L, 3 mg/L, 4 mg/L, 5 mg/L, and 6 mg/L) were incorporated into rooting medium (MS salts, B5 vitamins, 28 mg/L ferrous, 38 mg/L Na^2EDTA, 20 g/L sucrose and 0.59 g/L MES, 50 mg/L asparagine, 100 mg/L L-pyroglutamic acid, and 7 g/L NOBLE™ agar, pH 5.6) to determine which concentrations of glufosinate inhibited root development. […] However, 90% and 50% of the soybean shoots cultivated in rooting medium containing glufosinate at concentrations of 0.25 mg/L and 0.5 mg/L, respectively, produced roots. (see Table 1). The effective glufosinate concentration for inhibition of soybean shoot growth and development was determined to be at least 1.0 mg/L of glufosinate. Higher concentrations of glufosinate (e.g., concentrations greater than 1.0 mg/L) were effective in inhibiting root development.

[3] = system: transgenic soybean events; experiment: Heritability analysis of transgenic soybean events produced on rooting medium comprising glufosinate (T1 plants sprayed with glufosinate); format: in vivo
Text: A total of 153 transgenic soybean events were isolated and grown to maturity. These soybean events were self-fertilized to produce seed that was obtained and analyzed for heritability. All of the 153 transgenic soybean events were confirmed to contain the yellow fluorescent protein and phosphinothricin acetyltransferase transgenes via molecular analysis in the parental T0 soybean plants. For each of the 153 transgenic soybean events, 15 seeds were obtained and germinated in soil under conventional green house conditions. The transgenic soybean plants were grown to the V1 stage of development and were sprayed with 411 g ae/ha glufosinate, which was used as the exemplary selection agent in this example. After treatment with glufosinate, the soybean plants were observed and graded as resistant or susceptible to glufosinate. The transgenic soybean events that produced at least one T1 seedling were determined to be a heritable event.

soybean shoots = experiment: Rooting medium selection of aad-12 transformed soybean shoots with 2,4-D; format: in vivo, soybean (cv. Maverick); conditions: aad-12 transgene; rooting medium with 2,4-D about 2 to 120 mg/L
Method: Transformed soybean seed can be cultivated using a modified tissue culture protocol as described in U.S. Filing No. 61/739,349, herein incorporated by reference, wherein the selective agent is 2,4-D. Co-cultivation of the soybean plant seeds with Agrobacterium, can be carried out for 5 days on co-cultivation medium covered with a filter paper. After 5 days of incubation on the co-cultivation medium, the explants can be washed in liquid Shoot Induction (SI) medium for about 5 to 10 minutes. The explants can then be cultured onto Shoot Induction-I (SI-I) medium. The soybean seeds are oriented so the flat side of the soybean seed face up and the nodal end of the soybean cotyledon is imbedded into the SI-I medium. After 2 weeks of culture at 24° C. with an 18 hour photoperiod, the explants can be transferred to the Shoot Induction-II (SI-II) medium supplemented with 2 to 120 mg/L 2,4-D. After 2 weeks on SI-II medium, the cotyledons can be removed from the explants, wherein a flush shoot pad is excised by making a cut at the base of the cotyledon, and the isolated shoot is transferred to the Shoot Elongation (SE) medium. The cultures can be transferred to fresh SE medium every two weeks. PETRI™ dishes may not be wrapped with filter paper throughout the shoot induction and shoot elongation stages. […]

[4] = glufosinate 1 mg/L in rooting medium, 531 plants
[5] = root tissues, glufosinate 1 mg/L in rooting medium, 531 plants
[6] = rooting medium comprising glufosinate (1 mg/L)
[7] = Brown/Black Roots on glufosinate rooting medium, 76 events
[8] = Total, 153 T1 events, T1 sprayed with 411 g ae/ha glufosinate
[9] = White Roots on glufosinate rooting medium, 77 events
[10] = glufosinate at least 1 mg/L in rooting medium

## CP(=O)(O)CCC(N)C(=O)O (racemic) [glufosinate, DL-phosphinothricin]
[1]; [4]
  Number of Plants with Unhealthy, Brown/Black Roots: 212
  Number of Plants with Viable, White Roots: 319
  Plants with Unhealthy, Brown/Black Roots (%): 40%
  Plants with Viable, White Roots (%): 60%
[1]; microscopy, shoots with viable, white roots
  soybean plants produced from rooting medium comprising a selection agent that were transgenic (expressed the yellow fluorescence protein transgene): about 92%
[1]; [5]
  Number of Plants with YFP Expression: 271
  Number of Plants with no YFP Expression: 260
  Plants with YFP Expression (%): 51%
  Plants with no YFP Expression (%): 49%
[1]; [6]
  root phenotype of germline transformants: produce healthy, viable roots; also recorded: healthy viable roots were produced
  root phenotype of non-germline or chimeric transformants: either do not form roots or develop brown/black roots; also recorded: do not produce viable roots; also recorded: (1) no roots were produced; (2) roots were produced and turned brown; and, (3) roots were produced and turned black
[2]; glufosinate 0.25 mg/L in rooting medium
  Percentage of Shoots that Produced Roots: 90%
[2]; glufosinate 0.25 mg/L, 10 shoots cultivated
  Number of Shoots Producing Roots: 9
[2]; glufosinate 0.5 mg/L in rooting medium
  Percentage of Shoots that Produced Roots: 50%
[2]; glufosinate 0.5 mg/L, 10 shoots cultivated
  Number of Shoots Producing Roots: 5
[2]; glufosinate 1.0 mg/L in rooting medium
  Percentage of Shoots that Produced Roots: 0%
[2]; glufosinate 1.0 mg/L, 30 shoots cultivated
  Number of Shoots Producing Roots: 0
[2]; glufosinate 2.0 mg/L in rooting medium
  Percentage of Shoots that Produced Roots: 0%
[2]; glufosinate 2.0 mg/L, 30 shoots cultivated
  Number of Shoots Producing Roots: 0
[2]; glufosinate 3.0 mg/L in rooting medium
  Percentage of Shoots that Produced Roots: 0%
[2]; glufosinate 3.0 mg/L, 30 shoots cultivated
  Number of Shoots Producing Roots: 0
[2]; glufosinate 4.0 mg/L in rooting medium
  Percentage of Shoots that Produced Roots: 0%
[2]; glufosinate 4.0 mg/L, 25 shoots cultivated
  Number of Shoots Producing Roots: 0
[2]; glufosinate 5.0 mg/L in rooting medium
  Percentage of Shoots that Produced Roots: 0%
[2]; glufosinate 5.0 mg/L, 25 shoots cultivated
  Number of Shoots Producing Roots: 0
[2]; glufosinate 6.0 mg/L in rooting medium
  Percentage of Shoots that Produced Roots: 0%
[2]; glufosinate 6.0 mg/L, 25 shoots cultivated
  Number of Shoots Producing Roots: 0
[2]; rooting media supplemented with 1 to 6 mg/L glufosinate
  root formation of soybean shoots: no root formation was observed
[2]; rooting medium, non-transgenic shoots
  effective glufosinate concentration for inhibition of soybean shoot growth and development: at least 1.0 mg/L
[3]; [7]
  Percentage of heritable events: 7%
  Percentage of non-heritable events: 93%
[3]; [8]
  Percentage of heritable events: 48%
  Percentage of non-heritable events: 52%
[3]; [9]
  Percentage of heritable events: 90%
  Percentage of non-heritable events: 10%
[3]; [10]
  advanced events with viable, healthy roots confirmed to be germline soybean transformants: about 90%
  non-germline (chimeric) events eliminated based on root phenotype (brown/black roots or no root development): about 93%

## O=C(O)COc1ccc(Cl)cc1Cl [2,4-D, 2,4-dichlorophenoxyacetic acid]
Soybean shoots
  transgene expression in viable, white roots: a significant majority of the viable, white roots express the transgene in root tissues
